Test results: patent US20260191968A1, “PROTAC DEGRADERS OF MLLT1 AND/OR MLLT3” (DARK BLUE THERAPEUTICS LTD, priority 2024, published 2026)

Experiments:
MLLT1 = target: T1, MLLT1 (Homo sapiens, UniProt Q03111); assay: MLLT1 degradation assay in MV4-11 cells (JESS chemiluminescent detection), three concentrations, 24 h; format: cell-based; conditions: with respect to DMSO control
T1 construct: host or cells: MV4-11
T1 sequence (Q03111 1-559): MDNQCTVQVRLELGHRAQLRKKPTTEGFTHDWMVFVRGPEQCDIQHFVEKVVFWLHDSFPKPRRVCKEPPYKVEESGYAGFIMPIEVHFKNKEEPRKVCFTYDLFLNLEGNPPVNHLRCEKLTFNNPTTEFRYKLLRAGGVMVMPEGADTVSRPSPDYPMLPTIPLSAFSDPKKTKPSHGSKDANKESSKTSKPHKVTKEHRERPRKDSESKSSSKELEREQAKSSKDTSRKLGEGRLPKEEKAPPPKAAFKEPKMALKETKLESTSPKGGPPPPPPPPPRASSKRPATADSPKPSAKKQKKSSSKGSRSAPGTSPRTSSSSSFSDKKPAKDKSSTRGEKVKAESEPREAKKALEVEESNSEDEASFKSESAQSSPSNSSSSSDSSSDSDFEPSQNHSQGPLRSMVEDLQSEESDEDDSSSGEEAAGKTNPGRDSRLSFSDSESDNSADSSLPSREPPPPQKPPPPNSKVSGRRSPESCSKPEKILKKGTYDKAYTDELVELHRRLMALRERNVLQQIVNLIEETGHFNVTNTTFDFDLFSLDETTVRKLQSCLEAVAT
Method in brief: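 MV4-11 cells treated 24 h at 37° C, 5% CO2 with 1000, 100 and 10 nM compound (0.1% DMSO final). MLLT1 quantified by automated capillary chemiluminescent immunodetection; band peak area expressed as % degradation relative to DMSO control.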

MV4-11 cells = assay: MV4-11 cellular proliferative assay, Assay Format B (CTG 2.0, 168 h); format: cell-based; conditions: Homo sapiens, 168 h (7 days), CTG 2.0, read-out: IC50 (MV4-11 cellular proliferative assay, Assay format B)
Method in brief: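 MV4-11 cells seeded overnight in IMDM + 10% FBS, then exposed to 10-point, 3-fold dilutions from 1 uM or 100 nM top concentration (0.3% DMSO final) for 168 h at 37 °C. CTG 2.0 luminescence read; % viability vs DMSO control fitted by four-parameter logistic regression.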

Structure (SMILES) | MLLT1% Degradation @ 0.01 μM (MLLT1) | MLLT1% Degradation @ 0.1 μM (MLLT1) | MLLT1% Degradation @ 1 μM (MLLT1) | IC50 (MV4-11 cells)
CN1CCC[C@@H]1c1cc2cnc(NC(=O)c3ccc(CCCCC#Cc4cccc5c4CN(C4CCC(=O)NC4=O)C5=O)cc3F)cc2[nH]1 (stereo partly drawn) [Example 112, 4-(6-(2-(2,6-dioxopiperidin-3-yl)-1-oxoisoindolin-4-yl)hex-5-yn-1-yl)-2-fluoro-N-(2-((R)-1-methylpyrrolidin-2-yl)-1H-pyrrolo[3,2-c]pyridin-6-yl)benzamide] | A (Category A: A ≥ 75% degradation) | A (Category A: A ≥ 75% degradation) | A (Category A: A ≥ 75% degradation) | ≤ 0.1 µM
CN1CCC[C@@H]1c1cc2cnc(NC(=O)c3ccc(N4CCC(CC#Cc5cccc6c5CN(C5CCC(=O)NC5=O)C6=O)CC4)nn3)cc2[nH]1 (stereo partly drawn) [Example 153, 6-(4-(3-(2-(2,6-dioxopiperidin-3-yl)-1-oxoisoindolin-4-yl)prop-2-yn-1-yl)piperidin-1-yl)-N-(2-((R)-1-methylpyrrolidin-2-yl)-1H-pyrrolo[3,2-c]pyridin-6-yl)pyridazine-3-carboxamide] | A (Category A: A ≥ 75% degradation) | A (Category A: A ≥ 75% degradation) | A (Category A: A ≥ 75% degradation) | ≤ 0.1 µM
CN1CCC[C@@H]1c1cc2cnc(NC(=O)c3ccc(OCCC4CCN(c5cccc6c5CN(C5CCC(=O)NC5=O)C6=O)CC4)cc3F)cc2[nH]1 (mixture of isomers) [Example 171, 4-(2-(1-(2-(2,6-dioxopiperidin-3-yl)-1-oxoisoindolin-4-yl)piperidin-4-yl)ethoxy)-2-fluoro-N-(2-((R)-1-methylpyrrolidin-2-yl)-1H-pyrrolo[3,2-c]pyridin-6-yl)benzamide] | A (Category A: A ≥ 75% degradation) | A (Category A: A ≥ 75% degradation) | A (Category A: A ≥ 75% degradation) | ≤ 0.1 µM
CN1CCC[C@@H]1c1cc2cnc(NC(=O)c3ccc(CCCCC#Cc4cccc(N5CCC(=O)NC5=O)n4)cc3)cc2[nH]1 [Example 9, (R)-4-(6-(6-(2,4-dioxotetrahydropyrimidin-1(2H)-yl)pyridin-2-yl)hex-5-yn-1-yl)-N-(2-(1-methylpyrrolidin-2-yl)-1H-pyrrolo[3,2-c]pyridin-6-yl)benzamide] | A (Category A: A ≥ 75% degradation) | A (Category A: A ≥ 75% degradation) | A (Category A: A ≥ 75% degradation) | ≤ 0.1 µM
CN1CCC[C@@H]1c1cc2cnc(NC(=O)c3ccc(N4CCC(OC5CCN(c6cccc7c6C(=O)N(C6CCC(=O)NC6=O)C7=O)CC5)CC4)nc3)cc2[nH]1 (stereo partly drawn) [Example 148, 6-(4-((1-(2-(2,6-dioxopiperidin-3-yl)-1,3-dioxoisoindolin-4-yl)piperidin-4-yl)oxy)piperidin-1-yl)-N-(2-((R)-1-methylpyrrolidin-2-yl)-1H-pyrrolo[3,2-c]pyridin-6-yl)nicotinamide] | A (Category A: A ≥ 75% degradation) | A (Category A: A ≥ 75% degradation) | A (Category A: A ≥ 75% degradation) | ≤ 0.1 µM
CN1CCC[C@@H]1c1[nH]c2cc(NC(=O)CCCCCCC#Cc3cccc4c3CN(C3CCC(=O)NC3=O)C4=O)ncc2c1Cl (stereo partly drawn) [Example 13, N-(3-chloro-2-((R)-1-methylpyrrolidin-2-yl)-1H-pyrrolo[3,2-c]pyridin-6-yl)-9-(2-(2,6-dioxopiperidin-3-yl)-1-oxoisoindolin-4-yl) non-8-ynamide] | A (Category A: A ≥ 75% degradation) | A (Category A: A ≥ 75% degradation) | A (Category A: A ≥ 75% degradation) | ≤ 0.1 µM
CN1CCC[C@@H]1c1cc2cnc(NC(=O)c3ccc(CCCC#Cc4cccc5c4CN(C4CCC(=O)NC4=O)C5=O)c(F)c3)cc2[nH]1 (stereo partly drawn) [Example 93, 4-(5-(2-(2,6-dioxopiperidin-3-yl)-1-oxoisoindolin-4-yl)pent-4-yn-1-yl)-3-fluoro-N-(2-((R)-1-methylpyrrolidin-2-yl)-1H-pyrrolo[3,2-c]pyridin-6-yl)benzamide] | A (Category A: A ≥ 75% degradation) | A (Category A: A ≥ 75% degradation) | A (Category A: A ≥ 75% degradation) | ≤ 0.1 µM
CN1CCC[C@@H]1c1cc2cnc(NC(=O)c3ccc(CCCC#Cc4cccc5c4CN([C@H]4CCC(=O)NC4=O)C5=O)cc3)cc2[nH]1 (relative stereo) [Example 102, 4-(5-(2-((rel-S)-2,6-dioxopiperidin-3-yl)-1-oxoisoindolin-4-yl)pent-4-yn-1-yl)-N-(2-((R)-1-methylpyrrolidin-2-yl)-1H-pyrrolo[3,2-c]pyridin-6-yl)benzamide] | A (Category A: A ≥ 75% degradation) | A (Category A: A ≥ 75% degradation) | A (Category A: A ≥ 75% degradation) | ≤ 0.1 µM
CN1CCC[C@@H]1c1cc2cnc(NC(=O)c3cnc(N4CCN(CC#Cc5cccc6c5CN(C5CCC(=O)NC5=O)C6=O)CC4)nc3)cc2[nH]1 (stereo partly drawn) [Example 89, 2-(4-(3-(2-(2,6-dioxopiperidin-3-yl)-1-oxoisoindolin-4-yl)prop-2-yn-1-yl)piperazin-1-yl)-N-(2-((R)-1-methylpyrrolidin-2-yl)-1H-pyrrolo[3,2-c]pyridin-6-yl)pyrimidine-5-carboxamide] | A (Category A: A ≥ 75% degradation) | A (Category A: A ≥ 75% degradation) | C (Category C: 25% ≤ C < 50% degradation) | ≤ 0.1 µM
CN1CCC[C@@H]1c1[nH]c2cc(NC(=O)c3ccc(OCCC4CCN(c5cccc6c5CN(C5CCC(=O)NC5=O)C6=O)CC4)cc3F)ncc2c1Cl (stereo partly drawn) [Example 190, N-(3-chloro-2-((R)-1-methylpyrrolidin-2-yl)-1H-pyrrolo[3,2-c]pyridin-6-yl)-4-(2-(1-(2-(2,6-dioxopiperidin-3-yl)-1-oxoisoindolin-4-yl)piperidin-4-yl)ethoxy)-2-fluorobenzamide] | B (Category B: 50% ≤ B < 75% degradation) | A (Category A: A ≥ 75% degradation) | A (Category A: A ≥ 75% degradation) | ≤ 0.1 µM
CN1CCC[C@@H]1c1cc2cnc(NC(=O)c3ccc(N4CCN(C(=O)CC5CCN(c6cccc7c6CN(C6CCC(=O)NC6=O)C7=O)CC5)CC4)nc3)cc2[nH]1 (stereo partly drawn) [Example 108, 6-(4-(2-(1-(2-(2,6-dioxopiperidin-3-yl)-1-oxoisoindolin-4-yl)piperidin-4-yl)acetyl)piperazin-1-yl)-N-(2-((R)-1-methylpyrrolidin-2-yl)-1H-pyrrolo[3,2-c]pyridin-6-yl)nicotinamide] | A (Category A: A ≥ 75% degradation) | A (Category A: A ≥ 75% degradation) | B (Category B: 50% ≤ B < 75% degradation) | ≤ 0.1 µM
C[C@@H]1CN(CC2CCN(c3cccc4c3CN(C3CCC(=O)NC3=O)C4=O)CC2)CCN1c1ccc(C(=O)Nc2cc3[nH]c([C@H]4CCCN4C)cc3cn2)cc1 (mixture of isomers) [Example 133, 4-((2R)-4-((1-(2-(2,6-dioxopiperidin-3-yl)-1-oxoisoindolin-4-yl)piperidin-4-yl)methyl)-2-methylpiperazin-1-yl)-N-(2-((R)-1-methylpyrrolidin-2-yl)-1H-pyrrolo[3,2-c]pyridin-6-yl)benzamide] | A (Category A: A ≥ 75% degradation) | A (Category A: A ≥ 75% degradation) | A (Category A: A ≥ 75% degradation) | ≤ 0.1 µM
